Results reported in patent publication US9096624B2 (OSI Pharmaceuticals, LLC, priority 2009, dated 2015).
Counter-ions that a name gives are not always drawn.

biological target: FAK (Homo sapiens, UniProt Q05397); assay: biochemical
Sequence (Q05397 whole entry): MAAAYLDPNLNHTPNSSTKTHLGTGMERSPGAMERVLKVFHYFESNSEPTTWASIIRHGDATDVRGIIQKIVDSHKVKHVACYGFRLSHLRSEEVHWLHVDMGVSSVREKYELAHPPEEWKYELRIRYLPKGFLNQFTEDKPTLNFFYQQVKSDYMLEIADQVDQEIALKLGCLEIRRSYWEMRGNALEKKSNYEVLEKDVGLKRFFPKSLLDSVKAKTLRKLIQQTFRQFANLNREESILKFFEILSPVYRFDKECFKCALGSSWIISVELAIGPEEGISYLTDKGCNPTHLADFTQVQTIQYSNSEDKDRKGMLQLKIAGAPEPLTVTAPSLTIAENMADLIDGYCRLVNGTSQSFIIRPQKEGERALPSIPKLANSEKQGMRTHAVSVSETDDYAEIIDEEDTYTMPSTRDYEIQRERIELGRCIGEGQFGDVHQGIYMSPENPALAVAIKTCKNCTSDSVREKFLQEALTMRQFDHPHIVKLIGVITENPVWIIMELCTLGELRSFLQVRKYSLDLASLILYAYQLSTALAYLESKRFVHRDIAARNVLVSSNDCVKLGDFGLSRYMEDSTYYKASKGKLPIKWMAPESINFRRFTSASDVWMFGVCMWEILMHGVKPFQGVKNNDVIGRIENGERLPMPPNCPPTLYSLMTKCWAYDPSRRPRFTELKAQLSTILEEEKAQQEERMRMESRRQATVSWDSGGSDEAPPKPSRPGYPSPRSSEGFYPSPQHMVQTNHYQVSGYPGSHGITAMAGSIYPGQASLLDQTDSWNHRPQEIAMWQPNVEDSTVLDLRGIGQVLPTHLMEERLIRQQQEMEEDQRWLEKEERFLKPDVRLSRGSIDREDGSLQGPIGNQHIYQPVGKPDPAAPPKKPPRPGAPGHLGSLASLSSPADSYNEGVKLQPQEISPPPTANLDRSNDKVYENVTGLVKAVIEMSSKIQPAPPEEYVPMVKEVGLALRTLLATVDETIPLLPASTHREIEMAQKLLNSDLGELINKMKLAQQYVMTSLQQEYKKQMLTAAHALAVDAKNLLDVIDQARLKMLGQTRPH

Row | Structure (SMILES) | IC50 [µM]
1 | CCOP(=O)(O)C1CCC(c2ccc(Nc3nc(Nc4ccccc4OC)ncc3C(F)(F)F)c3c2CN(C)C3=O)CC1 (mixture of isomers) [Example 255, Ethyl hydrogen {4-[7-({2-[(2-methoxyphenyl)amino]-5-(trifluoromethyl)pyrimidin-4-yl}amino)-2-methyl-1-oxo-2,3-dihydro-1H-isoindol-4-yl]cyclohexyl}phosphonate trifluoroacetate] | < 1
2 | CCOP(=O)(Cc1ccc(Nc2ncc(C(F)(F)F)c(Nc3ccc([C@H]4CC[C@@H](C(=O)O)CC4)c4c3C(=O)N(C)C4)n2)c(OC)c1)OCC [Example 89, Cis-4-(7-{[2-({4-[(diethoxyphosphoryl)methyl]-2-methoxyphenyl}amino)-5-(trifluoromethyl)pyrimidin-4-yl]amino}-2-methyl-1-oxo-2,3-dihydro-1H-isoindol-4-yl)cyclohexanecarboxylic acid] | < 1
3 | CCOP(=O)(Cc1ccc(Nc2ncc(C(F)(F)F)c(Nc3ccc([C@H]4CC[C@H](O)CC4)c4c3C(=O)N(C)C4)n2)cc1)OCC [Example 91, Diethyl (4-{[4-{[7-(trans-4-hydroxycyclohexyl)-2-methyl-3-oxo-2,3-dihydro-1H-isoindol-4-yl]amino}-5-(trifluoromethyl)pyrimidin-2-yl]amino}benzyl)phosphonate] | < 1
4 | CCOP(=O)(Cc1ccc(Nc2ncc(C(F)(F)F)c(Nc3ccc([C@H]4CC[C@H](O)CC4)c4c3C(=O)N(C)C4)n2)c(OC)c1)OCC [Example 93, Diethyl (4-{[4-{[7-(trans-4-hydroxycyclohexyl)-2-methyl-3-oxo-2,3-dihydro-1H-isoindol-4-yl]amino}-5-(trifluoromethyl)pyrimidin-2-yl]amino}-3-methoxybenzyl) phosphonate hydrochloride] | < 1
5 | CCOP(=O)(Cc1ccc(Nc2ncc(C(F)(F)F)c(Nc3ccc([C@H]4CC[C@@H](N5CCN(C)CC5)CC4)c4c3C(=O)N(C)C4)n2)c(OC)c1)OCC [Example 95, Diethyl (3-methoxy-4-{[4-({2-methyl-7-[cis-4-(4-methylpiperazin-1-yl)cyclohexyl]-3-oxo-2,3-dihydro-1H-isoindol-4-yl}amino)-5-(trifluoromethyl)pyrimidin-2-yl]amino}benzyl)phosphonate] | < 1
6 | CCOP(=O)(Cc1ccc(Nc2ncc(C(F)(F)F)c(Nc3ccc(-c4cnn(CCOC)c4)c4c3C(=O)N(C)C4)n2)cc1)OCC [Example 97, Diethyl (4-{[4-({7-[1-(2-methoxyethyl)-1H-pyrazol-4-yl]-2-methyl-3-oxo-2,3-dihydro-1H-isoindol-4-yl}amino)-5-(trifluoromethyl)pyrimidin-2-yl]amino}benzyl)phosphonate] | < 1
7 | CCOP(=O)(Cc1ccc(Nc2ncc(C(F)(F)F)c(Nc3ccc(Br)cc3C(=O)NC)n2)cc1)OCC [Example 106, Diethyl (4-{[4-{[4-bromo-2-(methylcarbamoyl)phenyl]amino}-5-(trifluoromethyl)pyrimidin-2-yl]amino}benzyl)phosphonate] | < 1
8 | CCOP(=O)(Cc1ccc(Nc2ncc(C(F)(F)F)c(Nc3ccccc3C(=O)NC)n2)c(Br)c1)OCC [Example 108, Diethyl (3-bromo-4-{[4-{[2-(methylcarbamoyl)phenyl]amino}-5-(trifluoromethyl)pyrimidin-2-yl]amino}benzyl) phosphonate] | < 1
9 | CCOP(=O)(Cc1ccc(Nc2ncc(C(F)(F)F)c(Nc3ccccc3C(=O)N(C)C)n2)cc1)OCC [Example 111, Diethyl (4-{[4-{[2-(dimethylcarbamoyl)phenyl]amino}-5-(trifluoromethyl)pyrimidin-2-yl]amino}benzyl)phosphonate] | < 1
10 | CCOP(=O)(Cc1ccc(Nc2ncc(C(F)(F)F)c(Nc3ccccc3C(=O)N(C)C)n2)c(OC)c1)OCC [Example 112, Diethyl (4-{[4-{[2-(dimethylcarbamoyl)phenyl]amino}-5-(trifluoromethyl)pyrimidin-2-yl]amino}-3-methoxybenzyl)phosphonate] | < 1
11 | CCOP(=O)(Cc1ccc(Nc2ncc(C(F)(F)F)c(Nc3ccc(C(=O)OC)c4c3C(=O)N(C)C4)n2)cc1)OCC [Example 118, Methyl 7-{[2-({4-[(diethoxyphosphoryl)methyl]phenyl}amino)-5-(trifluoromethyl)pyrimidin-4-yl]amino}-2-methyl-1-oxo-2,3-dihydro-1H-isoindole-4-carboxylate] | < 1
12 | CCOP(=O)(O)Cc1ccc(Nc2ncc(C(F)(F)F)c(Nc3cccc4c3C(=O)N(C)C4)n2)c(OC)c1 [Example 120, Ethyl hydrogen [3-methoxy-4-({4-[(2-methyl-3-oxo-2,3-dihydro-1H-isoindol-4-yl)amino]-5-(trifluoromethyl)pyrimidin-2-yl}amino)benzyl]phosphonate] | < 1
13 | CCOP(=O)(Cc1ccc(Nc2ncc(C(F)(F)F)c(Nc3ccc(N4CCN5CCOCC5C4)c4c3C(=O)N(C)C4)n2)cc1)OCC (stereo not drawn) [Example 121, Diethyl (4-{[4-{[7-(hexahydropyrazino[2,1-c][1,4]oxazin-8(1H)-yl)-2-methyl-3-oxo-2,3-dihydro-1H-isoindol-4-yl]amino}-5-(trifluoromethyl)pyrimidin-2-yl]amino}benzyl)phosphonate] | < 1
14 | CCOP(=O)(Cc1ccc(Nc2ncc(C(F)(F)F)c(Nc3ccc(N4CCN5CCOCC5C4)c4c3C(=O)N(C)C4)n2)c(OC)c1)OCC (stereo not drawn) [Example 122, Diethyl (4-{[4-{[7-(hexahydropyrazino[2,1-c][1,4]oxazin-8(1H)-yl)-2-methyl-3-oxo-2,3-dihydro-1H-isoindol-4-yl]amino}-5-(trifluoromethyl)pyrimidin-2-yl]amino}-3-methoxybenzyl)phosphonate] | < 1
15 | CCOP(=O)(Cc1ccc(Nc2ncc(C(F)(F)F)c(Nc3ccc(Br)c4ccn(C)c(=O)c34)n2)cc1)OCC [Example 123, Diethyl [4-({4-[(5-bromo-2-methyl-1-oxo-1,2-dihydroisoquinolin-8-yl)amino]-5-(trifluoromethyl)pyrimidin-2-yl}amino)benzyl]phosphonate] | < 1
16 | CCCn1cc(-c2ccc(Nc3nc(Nc4ccc(CP(=O)(OCC)OCC)cc4)ncc3C(F)(F)F)c(C(=O)NC)c2)cn1 [Example 126, Diethyl (4-{[4-{[2-(methylcarbamoyl)-4-(1-propyl-1H-pyrazol-4-yl)phenyl]amino}-5-(trifluoromethyl)pyrimidin-2-yl]amino}benzyl)phosphonate] | < 1
17 | CCOP(=O)(Cc1ccc(Nc2ncc(C(F)(F)F)c(Nc3ccc(-c4cnn(CC(C)(C)O)c4)cc3C(=O)NC)n2)cc1)OCC [Example 127] | < 1
18 | CCOP(=O)(Cc1cc(OC)c(Nc2ncc(C(F)(F)F)c(Nc3ccccc3C(=O)NC)n2)cc1F)OCC [Example 130, Diethyl (2-fluoro-5-methoxy-4-{[4-{[2-(methylcarbamoyl)phenyl]amino}-5-(trifluoromethyl)pyrimidin-2-yl]amino}benzyl)phosphonate] | < 1
19 | CCOP(=O)(OCC)C(O)c1ccc(Nc2ncc(C(F)(F)F)c(Nc3ccccc3C(=O)NC)n2)cc1 (stereo not drawn) [Example 133, Diethyl [hydroxy(4-{[4-{[2-(methylcarbamoyl)phenyl]amino}-5-(trifluoromethyl)pyrimidin-2-yl]amino}phenyl)methyl]phosphonate trifluoroacetate] | < 1
20 | CCOP(=O)(Cc1ccc(Nc2ncc(C(F)(F)F)c(Nc3ccc(-c4cnn(CC(C)C)c4)cc3C(=O)NC)n2)cc1)OCC [Example 134, Diethyl (4-{[4-({2-(methylcarbamoyl)-4-[1-(2-methylpropyl)-1H-pyrazol-4-yl]phenyl}amino)-5-(trifluoromethyl)pyrimidin-2-yl]amino}benzyl)phosphonate] | < 1
21 | CCOP(=O)(Cc1ccc(Nc2ncc(C(F)(F)F)c(Nc3ccc(-c4cnn(C[C@H](O)CO)c4)cc3C(=O)NC)n2)cc1)OCC [Example 135, Diethyl (4-{[4-{[4-{1-[(2S)-2,3-dihydroxypropyl]-1H-pyrazol-4-yl}-2-(methylcarbamoyl)phenyl]amino}-5-(trifluoromethyl)pyrimidin-2-yl]amino}benzyl)phosphonate] | < 1
22 | CCOP(=O)(Cc1ccc(Nc2ncc(C(F)(F)F)c(Nc3ccc(-c4cnn(C5CC(O)C5)c4)cc3C(=O)NC)n2)cc1)OCC (stereo not drawn) [Example 136, Diethyl (4-{[4-({4-[1-(3-hydroxycyclobutyl)-1H-pyrazol-4-yl]-2-(methylcarbamoyl)phenyl}amino)-5-(trifluoromethyl)pyrimidin-2-yl]amino}benzyl)phosphonate] | < 1
23 | CCOP(=O)(Cc1ccc(Nc2ncc(C(F)(F)F)c(Nc3ccc(-c4cnn(CCO)c4)cc3C(=O)NC)n2)cc1)OCC [Example 145, Diethyl (4-{[4-({4-[1-(2-hydroxyethyl)-1H-pyrazol-4-yl]-2-(methylcarbamoyl)phenyl}amino)-5-(trifluoromethyl)pyrimidin-2-yl]amino}benzyl)phosphonate] | < 1
24 | CCOP(=O)(Cc1cc(F)c(Nc2ncc(C(F)(F)F)c(Nc3ccccc3C(=O)NC)n2)c(OC)c1)OCC [Example 146, Diethyl (3-fluoro-5-methoxy-4-{[4-{[2-(methylcarbamoyl)phenyl]amino}-5-(trifluoromethyl)pyrimidin-2-yl]amino}benzyl)phosphonate] | < 1
25 | CCOP(=O)(Cc1ccc(Nc2ncc(C(F)(F)F)c(Nc3ccc(C#N)cc3C(=O)NC)n2)cc1)OCC [Example 150, Diethyl (4-{[4-{[4-cyano-2-(methylcarbamoyl)phenyl]amino}-5-(trifluoromethyl)pyrimidin-2-yl]amino}benzyl)phosphonate] | < 1
26 | CCNC(=O)c1ccccc1Nc1nc(Nc2ccc(CP(=O)(OCC)OCC)cc2)ncc1C(F)(F)F [Example 152, Diethyl (4-{[4-{[2-(ethylcarbamoyl)phenyl]amino}-5-(trifluoromethyl)pyrimidin-2-yl]amino}benzyl)phosphonate] | < 1
27 | CCNC(=O)c1ccccc1Nc1nc(Nc2ccc(CP(=O)(OCC)OCC)cc2OC)ncc1C(F)(F)F [Example 153, Diethyl (4-{[4-{[2-(ethylcarbamoyl)phenyl]amino}-5-(trifluoromethyl)pyrimidin-2-yl]amino}-3-methoxybenzyl)phosphonate] | < 1
